Calls of active or inactive are those of the source. The calls are words filed in the database; no cut-off is given here.
Columns and labels:
[1] = biological target: T1, N-terminal Xaa-Pro-Lys N-methyltransferase 1 (Homo sapiens, UniProt Q9BV86); test: Inhibition of NTMT1 in human HCT116 cells assessed as decrease in me3-RCC1 level incubated for 3 days by Western blot analysis; assay type: cell-based, HCT-116
T1 sequence (Q9BV86 whole entry): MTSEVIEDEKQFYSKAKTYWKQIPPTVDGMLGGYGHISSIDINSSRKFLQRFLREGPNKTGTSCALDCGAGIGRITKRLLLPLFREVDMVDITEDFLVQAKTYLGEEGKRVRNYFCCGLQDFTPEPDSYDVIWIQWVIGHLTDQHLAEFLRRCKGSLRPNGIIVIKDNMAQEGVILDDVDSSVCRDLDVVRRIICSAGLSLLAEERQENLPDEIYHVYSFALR

[2] = Selectivity for recombinant human N-terminal His6-tagged NTMT1 (1 to 222 residues) expressed in Escherichia coli BL21-CodonPlus(DE3)-RIL over Trypanosoma brucei N-terminal His6-tagged PRMT7 expressed in Escherichia coli BL21-CodonPlus(DE3)-RIL
[3] = biological target: Protein arginine N-methyltransferase 3 (Homo sapiens) (UniProt O60678); test: Inhibition of PRMT3 (unknown origin) at 100 uM relative to control
Chain of Protein arginine N-methyltransferase 3 (Homo sapiens) (O60678 2-531 limits assumed): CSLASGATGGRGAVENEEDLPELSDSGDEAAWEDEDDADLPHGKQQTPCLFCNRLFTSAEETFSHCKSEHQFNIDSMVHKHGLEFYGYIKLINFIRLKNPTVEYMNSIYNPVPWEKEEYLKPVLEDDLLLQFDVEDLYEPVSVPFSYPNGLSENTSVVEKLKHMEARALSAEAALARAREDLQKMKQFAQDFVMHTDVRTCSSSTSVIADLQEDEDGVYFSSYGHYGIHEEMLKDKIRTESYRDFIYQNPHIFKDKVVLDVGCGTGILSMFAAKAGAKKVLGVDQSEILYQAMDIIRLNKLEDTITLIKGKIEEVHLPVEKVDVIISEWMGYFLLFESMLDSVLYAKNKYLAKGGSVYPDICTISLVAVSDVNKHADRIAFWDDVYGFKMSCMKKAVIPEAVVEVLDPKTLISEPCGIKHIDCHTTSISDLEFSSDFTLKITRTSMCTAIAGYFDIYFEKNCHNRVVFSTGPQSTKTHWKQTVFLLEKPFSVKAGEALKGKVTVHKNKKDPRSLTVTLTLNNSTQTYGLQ

[4] = biological target: T2, Histone-lysine N-methyltransferase EHMT2 (Homo sapiens) (UniProt Q96KQ7); test: Inhibition of human His-tagged G9a (913 to 1193 residues) expressed in Escherichia coli BL21-CodonPlus(DE3)-RIL at 100 uM using H3-21 peptide as substrate preincubated for 10 mins in presence of SAM followed by substrate addition by SAHH-coupled fluorescence assay relative to control
T2 sequence (whole entry): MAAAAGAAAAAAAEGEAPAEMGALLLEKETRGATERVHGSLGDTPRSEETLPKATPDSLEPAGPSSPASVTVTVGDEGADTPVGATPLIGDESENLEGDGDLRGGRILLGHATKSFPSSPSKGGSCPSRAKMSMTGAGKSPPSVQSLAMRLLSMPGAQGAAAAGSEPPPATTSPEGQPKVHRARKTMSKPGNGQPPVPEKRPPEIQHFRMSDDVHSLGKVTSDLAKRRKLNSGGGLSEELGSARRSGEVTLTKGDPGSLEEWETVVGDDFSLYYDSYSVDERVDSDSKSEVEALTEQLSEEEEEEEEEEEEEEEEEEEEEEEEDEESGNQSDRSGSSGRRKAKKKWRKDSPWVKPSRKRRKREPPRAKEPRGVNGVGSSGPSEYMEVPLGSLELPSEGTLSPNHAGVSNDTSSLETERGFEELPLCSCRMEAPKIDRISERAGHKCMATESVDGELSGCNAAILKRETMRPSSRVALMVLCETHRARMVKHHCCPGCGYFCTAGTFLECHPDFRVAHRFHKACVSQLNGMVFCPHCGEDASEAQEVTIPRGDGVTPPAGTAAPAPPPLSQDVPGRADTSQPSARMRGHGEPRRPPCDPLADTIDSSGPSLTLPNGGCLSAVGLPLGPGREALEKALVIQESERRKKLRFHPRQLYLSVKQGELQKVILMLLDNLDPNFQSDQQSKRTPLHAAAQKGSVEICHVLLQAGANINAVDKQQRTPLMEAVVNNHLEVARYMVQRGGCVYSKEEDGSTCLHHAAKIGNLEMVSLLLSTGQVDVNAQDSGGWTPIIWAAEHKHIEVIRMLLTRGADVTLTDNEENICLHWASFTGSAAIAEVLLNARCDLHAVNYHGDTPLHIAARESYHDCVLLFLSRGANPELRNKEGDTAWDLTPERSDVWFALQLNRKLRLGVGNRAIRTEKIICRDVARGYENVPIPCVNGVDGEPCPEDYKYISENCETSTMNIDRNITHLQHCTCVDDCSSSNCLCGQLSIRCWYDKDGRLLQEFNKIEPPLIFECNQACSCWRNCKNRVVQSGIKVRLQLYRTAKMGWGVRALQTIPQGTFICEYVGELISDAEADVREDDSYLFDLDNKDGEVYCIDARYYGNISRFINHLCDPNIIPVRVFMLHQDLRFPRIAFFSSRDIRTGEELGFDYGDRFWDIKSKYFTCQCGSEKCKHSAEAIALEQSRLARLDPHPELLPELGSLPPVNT

HCT-116 [5] = test: Cytotoxicity against human HCT116 cells assessed as reduction in cell viability up to 1 mM incubated for 24 hrs by resazurin-dye based alamar blue assay; settings: hct-116, 24 h
Homo sapiens [6] = organism: Homo sapiens; test: Selectivity for recombinant human N-terminal His6-tagged NTMT1 (1 to 222 residues) expressed in Escherichia coli BL21-CodonPlus(DE3)-RIL over His-tagged SETD7 (unknown origin)
Homo sapiens [7] = organism: Homo sapiens; test: Selectivity for recombinant human N-terminal His6-tagged NTMT1 (1 to 222 residues) expressed in Escherichia coli BL21-CodonPlus(DE3)-RIL over human His-tagged G9a (913 to 1193 residues) expressed in Escherichia coli BL21-CodonPlus(DE3)-RIL
[8] = biological target: T3, N-terminal Xaa-Pro-Lys N-methyltransferase 1 (Homo sapiens) (UniProt Q9BV86); test: Inhibition of NTMT1 in human HCT116 cells assessed as decrease in me3-SPK level at 1 mM incubated for 3 days by Western blot analysis relative to control; assay type: cell-based; settings: HCT-116, time 3.0 day
T3 sequence (whole entry): T1 sequence (Q9BV86 whole entry)

Trypanosoma brucei = test: Inhibition of Trypanosoma brucei N-terminal His6-tagged PRMT7 expressed in Escherichia coli BL21-CodonPlus(DE3)-RIL at 100 uM using H4-21 peptide as substrate preincubated for 10 mins in presence of SAM followed by substrate addition by SAHH-coupled fluorescence assay relative to control
HCT-116 [9] = test: Cytotoxicity against human HCT116 cells assessed as reduction in cell viability up to 1 mM incubated for 72 hrs by resazurin-dye based alamar blue assay; settings: hct-116, 72 h
[10] = biological target: T3, N-terminal Xaa-Pro-Lys N-methyltransferase 1 (Homo sapiens); test: Inhibition of NTMT1 in human HT29 cells assessed as decrease in me3-RCC1 level at 100 uM incubated for 3 days by Western blot analysis; assay type: cell-based; settings: HT-29, time 3.0 day
HCT-116 [11] = test: Cytotoxicity against human HCT116 cells assessed as reduction in cell viability up to 1 mM incubated for 48 hrs by resazurin-dye based alamar blue assay; settings: hct-116, 48 h
[12] = biological target: Protein arginine N-methyltransferase 1 (Homo sapiens) (UniProt Q99873); test: Inhibition of PRMT1 (unknown origin) at 100 uM using H4-21 peptide as substrate preincubated for 10 mins in presence of SAM followed by substrate addition by SAHH-coupled fluorescence assay relative to control
Chain of Protein arginine N-methyltransferase 1 (Homo sapiens) (Q99873 whole entry, looked up, the tested form may be a part): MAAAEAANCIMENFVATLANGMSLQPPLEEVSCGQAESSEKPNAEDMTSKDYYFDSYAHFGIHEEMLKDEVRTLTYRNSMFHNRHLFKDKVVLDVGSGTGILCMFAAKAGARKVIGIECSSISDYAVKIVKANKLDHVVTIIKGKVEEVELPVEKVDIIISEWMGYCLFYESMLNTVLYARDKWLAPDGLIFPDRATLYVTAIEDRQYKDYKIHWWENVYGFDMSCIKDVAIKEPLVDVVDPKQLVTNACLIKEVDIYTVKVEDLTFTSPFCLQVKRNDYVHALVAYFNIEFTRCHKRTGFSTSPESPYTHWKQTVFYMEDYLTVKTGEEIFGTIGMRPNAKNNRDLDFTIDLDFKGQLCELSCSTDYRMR

Homo sapiens [13] = organism: Homo sapiens; test: Selectivity for recombinant human N-terminal His6-tagged NTMT1 (1 to 222 residues) expressed in Escherichia coli BL21-CodonPlus(DE3)-RIL over PRMT1 (unknown origin)
[14] = biological target: T3, N-terminal Xaa-Pro-Lys N-methyltransferase 1 (Homo sapiens); test: Inhibition of NTMT1 in human HCT116 cells assessed as decrease in me3-SPK level at 300 uM incubated for 3 days by Western blot analysis relative to control; assay type: cell-based; settings: HCT-116, time 3.0 day
HT-29 [15] = test: Cytotoxicity against human HT29 cells assessed as reduction in cell viability up to 1 mM incubated for 72 hrs by resazurin-dye based alamar blue assay; settings: ht-29, 72 h
HT-29 [16] = test: Cytotoxicity against human HT29 cells assessed as reduction in cell viability up to 1 mM incubated for 24 hrs by resazurin-dye based alamar blue assay; settings: ht-29, 24 h
[17] = biological target: T3, N-terminal Xaa-Pro-Lys N-methyltransferase 1 (Homo sapiens); test: Inhibition of NTMT1 in human HCT116 cells assessed as decrease in me3-RCC1 level at 100 uM incubated for 3 days by Western blot analysis; assay type: cell-based; settings: HCT-116, time 3.0 day
[18] = biological target: Adenosylhomocysteinase (Homo sapiens) (UniProt P23526); test: Inhibition of SAHH (unknown origin) at 100 uM relative to control
Chain of Adenosylhomocysteinase (Homo sapiens) (P23526 2-432 limits assumed): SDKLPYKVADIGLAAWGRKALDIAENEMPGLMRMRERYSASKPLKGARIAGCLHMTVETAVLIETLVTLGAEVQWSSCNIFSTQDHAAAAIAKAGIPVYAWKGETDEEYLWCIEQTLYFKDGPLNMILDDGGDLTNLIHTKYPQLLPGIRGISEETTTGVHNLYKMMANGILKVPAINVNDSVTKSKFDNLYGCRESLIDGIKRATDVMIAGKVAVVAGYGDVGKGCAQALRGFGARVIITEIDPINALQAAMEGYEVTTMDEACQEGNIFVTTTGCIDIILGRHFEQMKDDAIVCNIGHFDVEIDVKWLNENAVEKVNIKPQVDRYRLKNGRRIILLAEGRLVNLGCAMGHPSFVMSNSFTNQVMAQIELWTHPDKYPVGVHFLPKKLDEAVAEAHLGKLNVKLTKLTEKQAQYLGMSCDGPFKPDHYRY

HT-29 [19] = test: Cytotoxicity against human HT29 cells assessed as reduction in cell viability up to 1 mM incubated for 48 hrs by resazurin-dye based alamar blue assay; settings: ht-29, 48 h
Homo sapiens [20] = organism: Homo sapiens; test: Selectivity for recombinant human N-terminal His6-tagged NTMT1 (1 to 222 residues) expressed in Escherichia coli BL21-CodonPlus(DE3)-RIL over PRMT3 (unknown origin)
Homo sapiens [21] = organism: Homo sapiens; test: Selectivity for recombinant human N-terminal His6-tagged NTMT1 (1 to 222 residues) expressed in Escherichia coli BL21-CodonPlus(DE3)-RIL over SAHH (unknown origin)
[22] = biological target: T4, Histone-lysine N-methyltransferase SETD7 (Homo sapiens) (UniProt Q8WTS6); test: Inhibition of His-tagged SETD7 (unknown origin) at 100 uM using H3-21 peptide as substrate preincubated for 10 mins in presence of SAM followed by substrate addition by SAHH-coupled fluorescence assay relative to control
T4 sequence (whole entry): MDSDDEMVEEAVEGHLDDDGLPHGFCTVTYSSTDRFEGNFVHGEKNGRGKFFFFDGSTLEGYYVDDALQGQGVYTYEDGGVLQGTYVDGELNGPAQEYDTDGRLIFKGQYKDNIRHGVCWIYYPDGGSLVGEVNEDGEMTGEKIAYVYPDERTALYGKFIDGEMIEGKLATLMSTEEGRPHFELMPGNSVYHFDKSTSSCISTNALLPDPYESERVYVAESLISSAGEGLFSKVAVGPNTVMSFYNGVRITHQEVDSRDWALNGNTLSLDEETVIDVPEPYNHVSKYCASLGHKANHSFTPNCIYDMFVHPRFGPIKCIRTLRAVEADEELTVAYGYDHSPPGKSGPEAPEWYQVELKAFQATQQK

[23] = biological target: T1, N-terminal Xaa-Pro-Lys N-methyltransferase 1; test: Inhibition of NTMT1 in human HT29 cells assessed as decrease in me3-RCC1 level incubated for 3 days by Western blot analysis; assay type: cell-based, HT-29
[24] = biological target: T3, N-terminal Xaa-Pro-Lys N-methyltransferase 1 (Homo sapiens); test: Inhibition of NTMT1 in human HCT116 cells assessed as decrease in me3-SPK level at 100 uM incubated for 3 days by Western blot analysis relative to control; assay type: cell-based; settings: HCT-116, time 3.0 day
[25] = biological target: T1, N-terminal Xaa-Pro-Lys N-methyltransferase 1; test: Inhibition of recombinant human N-terminal His6-tagged NTMT1 (1 to 222 residues) expressed in Escherichia coli BL21-CodonPlus(DE3)-RIL using GPKRIA peptide and SAM as substrate pre-incubated for 10 mins in presence of SAM followed by substrate addition by SAHH coupled fluorescence assay
Trypsin = Trypsin (Homo sapiens, UniProt P07477+P07478+P35030); test: Stability of compound assessed as trypsin (unknown origin) mediated compound hydrolysis at 10 uM incubated for 1 hr by MALDI-MS analysis; assay type: ADME, protein assay

For NCCCC[C@H](NC(=O)[C@@H]1CCCN1C(=O)Cc1cccc2ccccc12)C(=O)Nc1ccccc1C(N)=O, the IC50 [1] was 100 µM, the Selectivity ratio [2] was > 300 and the inhibition [3] was < 50%. The inhibition [4] was < 50%, the Activity (HCT-116 [5]) was “Non-Toxic” and the Selectivity ratio (Homo sapiens [6]) was > 300. The Selectivity ratio (Homo sapiens [7]) was > 300, the inhibition [8] was 100% and the inhibition (Trypanosoma brucei) was < 50%. For the same compound, the Activity (HCT-116 [9]) was “Non-Toxic”, the inhibition [10] was “Active” and the Activity (HCT-116 [11]) was “Non-Toxic”. The inhibition [12] was < 50%, the Selectivity ratio (Homo sapiens [13]) was > 300 and the inhibition [14] was 90%. The Activity (HT-29 [15]) was “Non-Toxic”, the Activity (HT-29 [16]) was “Non-Toxic” and the inhibition [17] was “Active”. The inhibition [18] was < 50%, the Activity (HT-29 [19]) was “Non-Toxic” and the Selectivity ratio (Homo sapiens [20]) was > 300. For the same compound, the Selectivity ratio (Homo sapiens [21]) was > 300, the inhibition [22] was < 50% and the IC50 [23] was 30 µM. It also gave an inhibition [24] of 61%.
With N=C(N)NCCC[C@H](NC(=O)[C@H](CCCCN)NC(=O)[C@@H]1CCCN1C(=O)Cc1cccc2ncccc12)C(N)=O the IC50 [25] was > 100 µM.
Work on NCCCC[C@H](NC(=O)[C@@H]1CCCN1C(=O)Cc1cccc2ccccc12)C(=O)Nc1ccccc1 yielded an inhibition [8] of 79%, an inhibition [14] of 55% and an IC50 [25] of 1.1 µM. The inhibition [24] was 0%.
Work on NCCCC[C@H](NC(=O)[C@@H]1CCCN1C(=O)Cc1cccc2ccccc12)C(=O)Nc1cccc2ccccc12 yielded an inhibition [8] of 47%, an inhibition [14] of 1% and an IC50 [25] of 0.97 µM. The inhibition [24] was 0%.
In the case of CN(C(=O)[C@H](CCCCN)NC(=O)[C@@H]1CCCN1C(=O)Cc1cccc2ccccc12)[C@@H](CCCNC(=N)N)C(N)=O, the Stabilty (Trypsin) is reported as “Stable”.
